The values that follow come from ChEMBL document CHEMBL1133669 (J Med Chem, 2000).

Structures are written as SMILES. pKi: −log10 of the molar value.

For one experiment, the target named is T1, Carbonic anhydrase 4 (Bos taurus, UniProt Q95323).
T1 sequence (Q95323 whole entry): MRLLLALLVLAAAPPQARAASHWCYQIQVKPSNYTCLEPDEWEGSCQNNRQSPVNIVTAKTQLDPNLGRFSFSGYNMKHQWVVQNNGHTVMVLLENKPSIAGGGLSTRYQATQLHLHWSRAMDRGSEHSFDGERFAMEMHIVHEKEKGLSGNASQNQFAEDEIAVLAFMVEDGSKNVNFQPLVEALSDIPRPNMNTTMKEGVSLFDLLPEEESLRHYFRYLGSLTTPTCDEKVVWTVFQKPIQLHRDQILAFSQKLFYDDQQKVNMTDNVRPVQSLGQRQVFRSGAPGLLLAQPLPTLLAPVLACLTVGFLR

A further experiment concerns the target Carbonic anhydrase 1 (Homo sapiens, UniProt P00915).
Experiment [1] relates to Rattus norvegicus. The experiment can be described thus: Renal excretion of bicarbonate after administration of 5 mg/kg in rats. The format is functional, Kidney.
Experiment [2] concerns Rattus norvegicus. The experiment can be described thus: Renal excretion of bicarbonate after administration of 4 mg/kg in rats. Type of experiment: functional, Kidney.
The species named for experiment [3] is Rattus norvegicus. The conditions noted are these: dose 10 mg/kg.

Sequence of Carbonic anhydrase 1 (P00915 whole entry): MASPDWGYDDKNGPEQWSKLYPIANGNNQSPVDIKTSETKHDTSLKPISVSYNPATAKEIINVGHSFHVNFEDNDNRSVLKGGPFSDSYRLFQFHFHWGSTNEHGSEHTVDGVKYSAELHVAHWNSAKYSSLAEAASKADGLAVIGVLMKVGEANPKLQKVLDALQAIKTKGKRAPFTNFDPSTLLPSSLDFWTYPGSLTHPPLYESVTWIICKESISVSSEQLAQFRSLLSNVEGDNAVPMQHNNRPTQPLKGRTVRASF
Description for Carbonic anhydrase 1: Inhibitory activity against human carbonic anhydrase I (CA1)
Description for Carbonic anhydrase 4: Inhibitory activity against bovine carbonic anhydrase IV (CA4), isolated from bovine lung microsomes

For the compound `Cc1cc(-c2ccccc2)cc(C)[n+]1CC(=O)Nc1nnc(S(N)(=O)=O)s1.[O-][Cl+3]([O-])([O-])[O-]`, the pKi on Carbonic anhydrase 4 was 7.77; on Carbonic anhydrase 1, 6.69. The compound further showed a Bicarbonate level in the experiment on Rattus norvegicus [1] of 38.
Regarding `CCc1cc(-c2ccccc2)cc(CC)[n+]1CC(=O)Nc1ccc(S(=O)(=O)/N=c2/sc(S(N)(=O)=O)nn2C)cc1.[O-][Cl+3]([O-])([O-])[O-]`, the values for the pKi on Carbonic anhydrase 4 and at Carbonic anhydrase 1 were 8.00 and 7.89, respectively. In the experiment with Rattus norvegicus [2], the Bicarbonate level is on record as 40.
Compound `NS(=O)(=O)c1nnc(NS(=O)(=O)c2ccccc2)s1` [BENZOLAMIDE] had a Bicarbonate level in the experiment listed under Rattus norvegicus [3] of 115.
As for `CCc1cc(-c2ccccc2)cc(CC)[n+]1CC(=O)Nc1cc(Cl)c(S(N)(=O)=O)cc1S(N)(=O)=O`, the pKi was 7.44 at Carbonic anhydrase 4 and 6.46 at Carbonic anhydrase 1.
In the same order, the values of `Cc1cc(-c2ccccc2)cc(C)[n+]1CC(=O)Nc1cccc(S(N)(=O)=O)c1` are 6.55 and 4.71.
With `Cn1nc(S(N)(=O)=O)s/c1=N/S(=O)(=O)c1ccc(N)cc1`, the pKi is 9.10 on Carbonic anhydrase 4 and 9.00 on Carbonic anhydrase 1.
Regarding `CCc1cc(-c2ccccc2)cc(CC)[n+]1CC(=O)Nc1ccc(S(=O)(=O)Nc2cccc(S(N)(=O)=O)c2)cc1`, the values for the pKi on Carbonic anhydrase 4 and on Carbonic anhydrase 1 were 7.22 and 7.37, respectively.
In the same order, the values of `CC(C)c1cc(-c2ccccc2)cc(C(C)C)[n+]1CC(=O)Nc1ccc(S(N)(=O)=O)cc1F` are 7.41 and 6.12.
The corresponding values for `Cc1cc(C)[n+](CC(=O)NCc2ccc(S(N)(=O)=O)cc2)c(C)c1` are 7.10 and 5.82.
In the case of `CC(C)c1cc(-c2ccccc2)cc(C(C)C)[n+]1CC(=O)Nc1ccc(S(N)(=O)=O)cc1`, the pKi was 6.74 on Carbonic anhydrase 4 and 4.82 on Carbonic anhydrase 1.
The corresponding values for `Cc1cc(-c2ccccc2)cc(C)[n+]1CC(=O)/N=c1/sc(S(N)(=O)=O)nn1C` are 7.80 and 6.70.
For the compound `Cc1cc(-c2ccccc2)cc(C)[n+]1CC(=O)Nc1ccc(S(=O)(=O)Nc2cccc(S(N)(=O)=O)c2)cc1`, the pKi is 7.26 at Carbonic anhydrase 4 and 7.42 at Carbonic anhydrase 1.
The corresponding values for `CC(C)c1cc(-c2ccccc2)cc(C(C)C)[n+]1CC(=O)Nc1nccc(Nc2ccc(S(N)(=O)=O)cc2)n1` are 7.21 and 7.33.
As to `CC(C)c1cc(-c2ccccc2)cc(C(C)C)[n+]1CC(=O)Nc1ccccc1S(N)(=O)=O`, the figures for the pKi on Carbonic anhydrase 4 and on Carbonic anhydrase 1 were 6.46 and 4.52, respectively.
As to `CCc1cc(-c2ccccc2)cc(CC)[n+]1CC(=O)Nc1nnc(S(N)(=O)=O)s1`, the pKi is 7.60 at Carbonic anhydrase 4 and 6.52 on Carbonic anhydrase 1.
Consider `CCc1cc(-c2ccccc2)cc(CC)[n+]1CC(=O)Nc1cc(C(F)(F)F)c(S(N)(=O)=O)cc1S(N)(=O)=O`, for which the pKi was 7.48 at Carbonic anhydrase 4 and 6.51 on Carbonic anhydrase 1.
Regarding `CC(C)c1cc(-c2ccccc2)cc(C(C)C)[n+]1CC(=O)Oc1ccc2nc(S(N)(=O)=O)sc2c1`, the values for the pKi on Carbonic anhydrase 4 and on Carbonic anhydrase 1 were 7.41 and 7.92, respectively.
`Cc1cc(C)[n+](CC(=O)Nc2nccc(Nc3ccc(S(N)(=O)=O)cc3)n2)c(C)c1`: the pKi on Carbonic anhydrase 4 was 7.16; at Carbonic anhydrase 1, 7.28.
In the same order, the values of `CCc1cc(-c2ccccc2)cc(CC)[n+]1CC(=O)OCCOc1ccc2nc(S(N)(=O)=O)sc2c1` are 7.60 and 8.00.
The corresponding values for `CCc1cc(-c2ccccc2)cc(CC)[n+]1CC(=O)Nc1cccc(S(N)(=O)=O)c1` are 6.51 and 4.66.
In the case of `CC(C)c1cc(-c2ccccc2)cc(C(C)C)[n+]1CC(=O)Nc1c(S(N)(=O)=O)cc(S(N)(=O)=O)c(Cl)c1Cl`, the pKi is 7.31 at Carbonic anhydrase 4 and 6.33 at Carbonic anhydrase 1.
Consider `Cc1cc(C)[n+](CC(=O)NCCC(=O)Nc2nnc(S(N)(=O)=O)s2)c(C)c1`, for which the values for the pKi at Carbonic anhydrase 4 and at Carbonic anhydrase 1 were 7.74 and 7.37, respectively.
In the same order, the values of `CC(C)c1cc(-c2ccccc2)cc(C(C)C)[n+]1CC(=O)NCc1ccc(S(N)(=O)=O)cc1` are 7.12 and 5.84.
In the same order, the values of `CC(C)c1cc(-c2ccccc2)cc(C(C)C)[n+]1CC(=O)Nc1ccc(S(N)(=O)=O)cc1Br` are 7.15 and 6.19.
As to `Cc1cc(-c2ccccc2)cc(C)[n+]1CC(=O)Nc1ccc(S(N)(=O)=O)cc1Cl`, the pKi is 7.42 at Carbonic anhydrase 4 and 6.22 on Carbonic anhydrase 1.
The corresponding values for `Cc1cc(C)[n+](CC(=O)Nc2ccc(S(N)(=O)=O)cc2F)c(C)c1` are 7.36 and 6.12.
`CCc1cc(-c2ccccc2)cc(CC)[n+]1CC(=O)NCCc1ccc(S(N)(=O)=O)cc1`: the pKi was 7.21 at Carbonic anhydrase 4 and 6.12 at Carbonic anhydrase 1.
`CC(C)c1cc(-c2ccccc2)cc(C(C)C)[n+]1CC(=O)OCc1ccc(S(N)(=O)=O)cc1`: the pKi is 6.92 at Carbonic anhydrase 4 and 5.75 at Carbonic anhydrase 1.
The corresponding values for `Cc1cc(C)[n+](CC(=O)Nc2cccc(S(N)(=O)=O)c2)c(C)c1` are 6.39 and 4.62.
In the same order, the values of `Cc1cc(C)[n+](CC(=O)Nc2ccc(S(N)(=O)=O)cc2Cl)c(C)c1` are 7.15 and 6.17.
Consider `CCc1cc(-c2ccccc2)cc(CC)[n+]1CC(=O)Nc1ccc(S(N)(=O)=O)cc1I`, for which the pKi on Carbonic anhydrase 4 is 7.19; at Carbonic anhydrase 1, 6.21.
In the case of `CC(C)c1cc(-c2ccccc2)cc(C(C)C)[n+]1CC(=O)Nc1ccc(S(=O)(=O)Nc2nnc(S(N)(=O)=O)s2)cc1`, the pKi at Carbonic anhydrase 4 was 8.00; at Carbonic anhydrase 1, 7.85.
The corresponding values for `CC(C)c1cc(-c2ccccc2)cc(C(C)C)[n+]1CC(=O)Nc1ccc(S(=O)(=O)Nc2cccc(S(N)(=O)=O)c2)cc1` are 7.14 and 7.28.
In the same order, the values of `CCc1cc(-c2ccccc2)cc(CC)[n+]1CC(=O)Nc1ccc2nc(S(N)(=O)=O)sc2c1` are 7.52 and 7.96.
For `Cc1cc(C)[n+](CC(=O)Nc2ccccc2S(N)(=O)=O)c(C)c1`, the pKi was 6.37 on Carbonic anhydrase 4 and 4.49 at Carbonic anhydrase 1.
As for `CC(C)c1cc(-c2ccccc2)cc(C(C)C)[n+]1CC(=O)Nc1ccc(S(=O)(=O)/N=c2/sc(S(N)(=O)=O)nn2C)cc1`, the figures for the pKi on Carbonic anhydrase 4 and at Carbonic anhydrase 1 were 8.00 and 7.82, respectively.
The corresponding values for `Cc1cc(C)[n+](CC(=O)Nc2cc(Cl)c(S(N)(=O)=O)cc2S(N)(=O)=O)c(C)c1` are 7.19 and 6.44.
The corresponding values for `CCc1cc(-c2ccccc2)cc(CC)[n+]1CC(=O)Nc1ccc(S(N)(=O)=O)cc1Br` are 7.26 and 6.21.
In the same order, the values of `CCc1cc(-c2ccccc2)cc(CC)[n+]1CC(=O)OCCc1ccc(S(N)(=O)=O)cc1` are 7.08 and 5.82.
As to `CC(C)c1cc(-c2ccccc2)cc(C(C)C)[n+]1CC(=O)/N=c1/sc(S(N)(=O)=O)nn1C.[O-][Cl+3]([O-])([O-])[O-]`, the pKi on Carbonic anhydrase 4 was 7.46; on Carbonic anhydrase 1 it was 6.52. Besides, the Bicarbonate level with Rattus norvegicus [1] was found to be 40.
Take `Cc1cc(C)[n+](CC(=O)Nc2ccc(S(=O)(=O)Nc3ccc(S(N)(=O)=O)cc3)cc2)c(C)c1`: the figures for the pKi on Carbonic anhydrase 4 and at Carbonic anhydrase 1 were 7.11 and 7.26, respectively.
In the same order, the values of `Cc1cc(C)[n+](CC(=O)Nc2ccc(S(=O)(=O)Nc3cccc(S(N)(=O)=O)c3)cc2)c(C)c1` are 7.07 and 7.21.
With `CC(C)c1cc(-c2ccccc2)cc(C(C)C)[n+]1CC(=O)NNc1ccc(S(N)(=O)=O)cc1`, the negative-log Ki (pKi) at Carbonic anhydrase 4 was 6.44; at Carbonic anhydrase 1, 4.47.
On to `CC(C)c1cc(-c2ccccc2)cc(C(C)C)[n+]1CC(=O)Nc1ccc(S(N)(=O)=O)cc1I`, for which the negative logarithm of the Ki (pKi) at Carbonic anhydrase 4 was 7.12; at Carbonic anhydrase 1, 6.20.
In the same order, the values of `Cc1cc(-c2ccccc2)cc(C)[n+]1CC(=O)Nc1cc(C(F)(F)F)c(S(N)(=O)=O)cc1S(N)(=O)=O` are 7.48 and 6.52.
The corresponding values for `CCc1cc(-c2ccccc2)cc(CC)[n+]1CC(=O)OCc1ccc(S(N)(=O)=O)cc1` are 7.01 and 5.77.

The pKi is −log10 of the Ki, conventionally taken in molar units.
